In patent US20240342320A1, “POLYPEPTIDE TARGETING INTEGRIN ALPHA 6 AND USE THEREOF” (GUANGZHOU GENBIONOVA MEDICAL TECHNOLOGY CO., LTD., priority 2021, published 2024):
Like-named read-outs stand apart in the source and are kept apart here. Positions of bridges follow the written chain, without caps; N, C: chain ends. Non-standard residues stand in square brackets, D forms with d. Residues, ends and D or L forms follow the SMILES beside them. *: point of attachment. NOTA = O=C(O)CN1CCN(CC(=O)O)CCN(CC(=O)*)CC1; PEG4 = NCCOCCOCCOCCOCCC(=O)O

How the values were obtained:
[1] = biological target: T1, integrin α6β4 (Homo sapiens, UniProt P16144+P23229); experiment: Microscale thermophoresis (MST) affinity to integrin α6β4; type: binding; settings: MST
T1 sequence (P23229 24-1050 limits assumed): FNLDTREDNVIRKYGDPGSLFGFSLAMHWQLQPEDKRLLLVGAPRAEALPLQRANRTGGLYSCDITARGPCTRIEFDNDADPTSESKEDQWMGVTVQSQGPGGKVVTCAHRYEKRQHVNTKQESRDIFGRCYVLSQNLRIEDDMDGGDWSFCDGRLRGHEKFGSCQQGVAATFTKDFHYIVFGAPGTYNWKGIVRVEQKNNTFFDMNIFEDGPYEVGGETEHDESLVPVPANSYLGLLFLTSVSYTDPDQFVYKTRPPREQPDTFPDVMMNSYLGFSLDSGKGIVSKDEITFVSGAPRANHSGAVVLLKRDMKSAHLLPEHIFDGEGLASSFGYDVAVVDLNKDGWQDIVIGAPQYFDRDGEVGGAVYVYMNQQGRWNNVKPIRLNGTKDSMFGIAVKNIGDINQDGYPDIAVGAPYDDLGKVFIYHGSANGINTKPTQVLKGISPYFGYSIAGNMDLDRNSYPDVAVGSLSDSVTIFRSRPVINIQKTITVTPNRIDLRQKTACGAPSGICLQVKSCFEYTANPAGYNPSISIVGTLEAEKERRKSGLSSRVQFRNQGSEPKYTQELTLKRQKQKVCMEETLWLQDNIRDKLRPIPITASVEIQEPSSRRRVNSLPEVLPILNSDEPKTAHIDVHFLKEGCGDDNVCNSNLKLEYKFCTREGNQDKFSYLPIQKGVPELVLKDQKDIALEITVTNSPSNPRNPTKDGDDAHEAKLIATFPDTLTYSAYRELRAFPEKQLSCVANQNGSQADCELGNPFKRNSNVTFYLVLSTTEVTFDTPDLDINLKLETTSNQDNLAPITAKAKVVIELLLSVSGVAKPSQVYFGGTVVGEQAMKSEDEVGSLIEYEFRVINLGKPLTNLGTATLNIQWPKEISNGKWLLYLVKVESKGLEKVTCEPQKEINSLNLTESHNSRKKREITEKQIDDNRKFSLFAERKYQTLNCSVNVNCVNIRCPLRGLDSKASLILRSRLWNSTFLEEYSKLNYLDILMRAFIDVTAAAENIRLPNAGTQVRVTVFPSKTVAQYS
T1 sequence (P16144 28-710 partner limits assumed): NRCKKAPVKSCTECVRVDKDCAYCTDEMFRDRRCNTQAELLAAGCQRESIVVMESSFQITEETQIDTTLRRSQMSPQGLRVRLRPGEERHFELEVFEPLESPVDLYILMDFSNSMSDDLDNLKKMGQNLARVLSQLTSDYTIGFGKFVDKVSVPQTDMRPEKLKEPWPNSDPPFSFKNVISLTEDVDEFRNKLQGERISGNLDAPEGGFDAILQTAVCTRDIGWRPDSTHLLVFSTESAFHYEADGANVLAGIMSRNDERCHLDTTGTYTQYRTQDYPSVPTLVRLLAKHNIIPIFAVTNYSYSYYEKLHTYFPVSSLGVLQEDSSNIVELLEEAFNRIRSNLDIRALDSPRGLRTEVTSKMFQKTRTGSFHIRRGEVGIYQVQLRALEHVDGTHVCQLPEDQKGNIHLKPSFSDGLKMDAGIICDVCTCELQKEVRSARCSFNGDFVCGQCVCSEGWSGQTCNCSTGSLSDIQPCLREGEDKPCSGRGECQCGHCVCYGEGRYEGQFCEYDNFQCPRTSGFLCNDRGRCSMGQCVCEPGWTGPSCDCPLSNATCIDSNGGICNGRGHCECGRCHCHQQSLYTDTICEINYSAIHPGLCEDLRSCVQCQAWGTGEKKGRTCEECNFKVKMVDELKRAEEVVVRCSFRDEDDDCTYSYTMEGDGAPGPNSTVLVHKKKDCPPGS
Experimental: (§1) The affinity between these 18 polypeptides and integrin α6β4 was detected by microscale thermophoresis (MST) method as follows: • 1) Integrin α6β4 protein was dissolved to 800 nM, and polypeptide was dissolved to 100 μM. • 2) A RED-tris-NTA second-generation dye was diluted to 100 nM by using the MO series RED-tris-NTA protein labeling kit. • 3) 100 μl α6β4 protein was mixed with 50 μl dye and incubated at room temperature for 30 min, so that the α6β4 protein binds to the dye. • 4) 10 μl polypeptide was transferred into a PCR tube, and was diluted with PBST (containing 0.05% Tween 20) at a ratio of 1:1 to 16 gradients of concentrations. • 5) 3 μl protein/dye mixture was transferred into a PCR tube, 3 μl of 16 different concentrations of polypeptides was respectively added and mixed well. • 6) The mixture was absorbed by capillary and loaded on machine (instrument model Monolith NT.115) to assay, parameters were set as 80% LED/excitation power and medium MST power. • 7) MO. Affinity Analysis software was used to calculate the equilibrium dissociation constant KD between α6β4 protein and polypeptide by KD fitting mode.

[2] = biological target: T2, integrin α6β4 (Homo sapiens, UniProt P23229); experiment: as above; type: binding; settings: for Affinity relative to RWY: relative to CRWYDENAC (RWY) = 1.00
T2 sequence (P23229 24-1050 limits assumed): T1 sequence (P23229 24-1050 limits assumed)
T2 sequence (P16144 28-710 partner limits assumed): T1 sequence (P16144 28-710 partner limits assumed)
Experimental: as §1

[3] = integrin α6β4, determination 1, read-out: KD (um) 1
[4] = integrin α6β4, determination 2, read-out: KD (um) 2
[5] = integrin α6β4, determination 3, read-out: KD (um) 3
[6] = integrin α6β4, mean of 3, read-out: KD Mean value (μm)

## N=C(N)NCCC[C@H](N)C(=O)N[C@@H](Cc1c[nH]c2ccccc12)C(=O)N[C@@H](Cc1ccc(O)cc1)C(=O)N[C@@H](CC(=O)O)C(=O)N[C@@H](CCC(=O)O)C(=O)O [P13, RWYDE] (H-RWYDE-OH; N-terminus and C-terminus assumed)
[1]; [3]
  Kd: 14.7 µM
[1]; [4]
  Kd: 78.8 µM
[1]; [5]
  Kd: 99.6 µM
[1]; [6]
  Kd: 64.4 µM
[2]
  Affinity relative to RWY: 0.11

## C[C@H](NC(=O)[C@H](CC(=O)O)NC(=O)[C@H](Cc1ccc(O)cc1)NC(=O)[C@H](Cc1c[nH]c2ccccc12)NC(=O)[C@@H](N)CCCNC(=N)N)C(=O)N[C@@H](CC(N)=O)C(=O)O [P11, RWYDAN] (H-RWYDAN-OH; N-terminus and C-terminus assumed)
[1]; [3]
  Kd: 34.6 µM
[1]; [4]
  Kd: 23.2 µM
[1]; [5]
  Kd: 35.7 µM
[1]; [6]
  Kd: 31.2 µM
[2]
  Affinity relative to RWY: 0.22

## C[C@H](NC(=O)[C@H](Cc1ccc(O)cc1)NC(=O)[C@H](Cc1c[nH]c2ccccc12)NC(=O)[C@@H](N)CCCNC(=N)N)C(=O)N[C@@H](CCC(=O)O)C(=O)N[C@@H](CC(N)=O)C(=O)O [P16, RWYAEN] (H-RWYAEN-OH; N-terminus and C-terminus assumed)
[1]; [3]
  Kd: 7.31 µM
[1]; [4]
  Kd: 6.08 µM
[1]; [5]
  Kd: 9.74 µM
[1]; [6]
  Kd: 7.71 µM
[2]
  Affinity relative to RWY: 0.90

## C[C@H](NC(=O)[C@H](CC(=O)O)NC(=O)[C@H](Cc1ccc(O)cc1)NC(=O)[C@H](Cc1c[nH]c2ccccc12)NC(=O)[C@@H](N)CCCNC(=N)N)C(=O)O [P14, RWYDA] (H-RWYDA-OH; N-terminus and C-terminus assumed)
[1]; [3]
  Kd: 6.28 µM
[1]; [4]
  Kd: 4.69 µM
[1]; [5]
  Kd: 4.22 µM
[1]; [6]
  Kd: 5.06 µM
[2]
  Affinity relative to RWY: 1.38

## C[C@@H]1NC(=O)[C@H](CC(N)=O)NC(=O)[C@H](CCC(=O)O)NC(=O)[C@H](CC(=O)O)NC(=O)[C@H](Cc2ccc(O)cc2)NC(=O)[C@H](C)NC(=O)[C@H](CCCNC(=N)N)NC(=O)[C@@H](N)CSSC[C@@H](C(=O)O)NC1=O [P3, CRAYDENAC] (H-CRAYDENAC-OH; disulfide 1-9; N-terminus and C-terminus assumed)
[1]; [3]
  Kd: 14.4 µM
[1]; [4]
  Kd: 11.8 µM
[1]; [5]
  Kd: 13.8 µM
[1]; [6]
  Kd: 13.3 µM
[2]
  Affinity relative to RWY: 0.52

## C[C@@H]1NC(=O)[C@H](CC(N)=O)NC(=O)[C@H](CCC(=O)O)NC(=O)[C@H](CC(=O)O)NC(=O)[C@H](Cc2ccc(O)cc2)NC(=O)[C@H](Cc2c[nH]c3ccccc23)NC(=O)[C@H](C)NC(=O)[C@@H](N)CSSC[C@@H](C(=O)O)NC1=O [P2, CAWYDENAC] (H-CAWYDENAC-OH; disulfide 1-9; N-terminus and C-terminus assumed)
[1]; [3]
  Kd: 4.03 µM
[1]; [4]
  Kd: 12.1 µM
[1]; [5]
  Kd: 3.58 µM
[1]; [6]
  Kd: 6.58 µM
[2]
  Affinity relative to RWY: 1.06

## C[C@@H]1NC(=O)[C@H](C)NC(=O)[C@H](CCC(=O)O)NC(=O)[C@H](CC(=O)O)NC(=O)[C@H](Cc2ccc(O)cc2)NC(=O)[C@H](Cc2c[nH]c3ccccc23)NC(=O)[C@H](CCCNC(=N)N)NC(=O)[C@@H](N)CSSC[C@@H](C(=O)O)NC1=O [P7, CRWYDEAAC] (H-CRWYDEAAC-OH; disulfide 1-9; N-terminus and C-terminus assumed)
[1]; [3]
  Kd: 0.25 µM
[1]; [4]
  Kd: 0.25 µM
[1]; [5]
  Kd: 1.37 µM
[1]; [6]
  Kd: 0.62 µM
[2]
  Affinity relative to RWY: 11.19

## C[C@@H]1NC(=O)[C@H](CC(N)=O)NC(=O)[C@H](CCC(=O)O)NC(=O)[C@H](CC(=O)O)NC(=O)[C@H](Cc2ccc(O)cc2)NC(=O)[C@H](Cc2c[nH]c3ccccc23)NC(=O)[C@H](CCCNC(=N)N)NC(=O)[C@@H](N)CSSC[C@@H](C(=O)O)NC1=O [P1, CRWYDENAC] (H-CRWYDENAC-OH; disulfide 1-9; N-terminus and C-terminus assumed)
[1]; [3]
  Kd: 8.59 µM
[1]; [4]
  Kd: 6.52 µM
[1]; [5]
  Kd: 5.81 µM
[1]; integrin α6β4, read-out: KD
  Kd: 6.97 ± 1.44 µM
[2]
  Affinity relative to RWY: 1.00

## C[C@@H]1NC(=O)[C@H](CC(N)=O)NC(=O)[C@H](CCC(=O)O)NC(=O)[C@H](C)NC(=O)[C@H](Cc2ccc(O)cc2)NC(=O)[C@H](Cc2c[nH]c3ccccc23)NC(=O)[C@H](CCCNC(=N)N)NC(=O)[C@@H](N)CSSC[C@@H](C(=O)O)NC1=O [P5, CRWYAENAC] (H-CRWYAENAC-OH; disulfide 1-9; N-terminus and C-terminus assumed)
[1]; [3]
  Kd: 0.36 µM
[1]; [4]
  Kd: 0.22 µM
[1]; [5]
  Kd: 0.65 µM
[1]; [6]
  Kd: 0.41 µM
[2]
  Affinity relative to RWY: 17.01

## N=C(N)NCCC[C@H](N)C(=O)N[C@@H](Cc1c[nH]c2ccccc12)C(=O)N[C@@H](Cc1ccc(O)cc1)C(=O)N[C@@H](CC(=O)O)C(=O)N[C@@H](CCC(=O)O)C(=O)N[C@@H](CC(N)=O)C(=O)O [P9, RWYDEN] (H-RWYDEN-OH; N-terminus and C-terminus assumed)
[1]; [3]
  Kd: 9.69 µM
[1]; [4]
  Kd: 8.73 µM
[1]; [5]
  Kd: 13.1 µM
[1]; [6]
  Kd: 10.5 µM
[2]
  Affinity relative to RWY: 0.66

## C[C@@H]1NC(=O)[C@H](CC(N)=O)NC(=O)[C@H](C)NC(=O)[C@H](CC(=O)O)NC(=O)[C@H](Cc2ccc(O)cc2)NC(=O)[C@H](Cc2c[nH]c3ccccc23)NC(=O)[C@H](CCCNC(=N)N)NC(=O)[C@@H](N)CSSC[C@@H](C(=O)O)NC1=O [P6, CRWYDANAC] (H-CRWYDANAC-OH; disulfide 1-9; N-terminus and C-terminus assumed)
[1]; [3]
  Kd: 1.21 µM
[1]; [4]
  Kd: 7.99 µM
[1]; [5]
  Kd: 3.83 µM
[1]; [6]
  Kd: 4.34 µM
[2]
  Affinity relative to RWY: 1.61

## N=C(N)NCCC[C@H](N)C(=O)N[C@@H](Cc1c[nH]c2ccccc12)C(=O)N[C@@H](Cc1ccc(O)cc1)C(=O)N[C@@H](CC(=O)O)C(=O)NCCOCCOCCOCCOCCC(=O)N[C@@H](CCCCNC(=O)CN1CCN(CC(=O)O)CCN(CC(=O)O)CC1)C(=O)O [RWYD-PEG4-K-NOTA] (H-RWYD[PEG4]K(NOTA)-OH)
[2]; MST, integrin α6β4
  Kd: 0.642 ± 0.261 µM
